58 compounds from US20140336182A1, “Aurora Kinase Modulators and Method of Use” (Amgen Inc., priority 2013, published 2014) can be followed below.

One test has as its system HeLa cells. Briefly: HeLa cell 24 hr ploidy assay (DNA content). The conditions noted are these: HeLa cells, 4N ploidy, average, read-out: 24h_4NPloidy EC50_IP (uM Avg). The format is cell-based. The procedure, abridged: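 DNA content measured by Hoechst 33342 nuclear staining (0.5 ug/ml, 45 min RT) and high-content imaging of fixed HeLa cells after 24 h compound exposure in 0.25% DMSO. Fractions of 4N and >4N cells fitted to dose curves giving EC50 IP, EC50 transit, Max and Min.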
Turning to `COc1cnc2c(Sc3ccc(Nc4nnc(N5CCN6CCCC[C@@H]6C5)c5ccccc45)cc3)ccnc2c1` [compound 584], the EC50 is 0.005 µM.

Staying with this test, now noted: Homo sapiens, HeLa, 4N ploidy, average, read-out: 24h_4NPloidy EC50_IP (uM Avg).
Turning to `COc1cnc2c(Oc3ccc(Nc4nnc(-c5ccc(C)cn5)c5ccccc45)cc3)ccnc2c1` [compound 125], the EC50 was determined as 0.059 µM. Still for that read-out and setting: the same measure for `Brc1ccc2c(Oc3ccc(Nc4nnc(-c5ccccc5)c5ccccc45)cc3)ccnc2c1` [compound 133]: 0.116 µM; for `COc1cnc2c(Oc3ccc(Nc4nnc(-c5cc6ccccc6n5C)c5ccccc45)cc3)ccnc2c1` [compound 143, 4-(1-methyl-1H-indol-2-yl)-N-(4-((7-(methyloxy)-1,5-naphthyridin-4-yl)oxy)phenyl)-1-phthalazinamine]: 0.094 µM; for `COc1cnc2c(Oc3ccc(Nc4nnc(N5CCN(C)CC5)c5ccccc45)cc3)ccnc2c1` [compound 85]: 0.085 µM. The same measure, in the same setting: as for `COc1cnc2c(Oc3cnc(Nc4nnc(-c5ccccc5)c5ccccc45)nc3)ccnc2c1` [compound 84], the figure is 0.485 µM; as for `COc1cnc2c(Oc3ccc(Nc4nnc(-c5cc(C)ccn5)c5ccccc45)cc3)ccnc2c1` [compound 116, N-(4-((7-(methyloxy)-1,5-naphthyridin-4-yl)oxy)phenyl)-4-(4-methyl-2-pyridinyl)-1-phthalazinamine], 0.179 µM. Regarding `COc1cc2nccc(Oc3ccc(Nc4nnc(-c5cc(C)ccn5)c5ccccc45)cc3)c2cn1` [compound 121], the EC50 stood at 0.132 µM. The same measure, in the same setting: as for `COc1cnc2c(Oc3ccc(Nc4nnc(-c5ccncc5OC)c5ccccc45)cc3)ccnc2c1` [compound 130], the figure is greater than 1.2 µM.

With `COc1cc2nccc(Oc3ccc(Nc4nnc(-c5ccc(C)cn5)c5ccccc45)cc3)c2cn1` [compound 103], the EC50 was found to be 0.03 µM. Take `COc1cnc2c(Nc3ccc(Nc4nnc(-c5ccccc5)c5ccccc45)cc3)ccnc2c1` [Example 40, N′-(7-methoxy-1,5-naphthyridin-4-yl)-N4-(4-phenylphthalazin-1-yl)benzene-1,4-diamine]: the EC50 is 0.07 µM.

With `COc1cnc2c(Oc3ccc(Cc4nnc(-c5ccc(C)cc5)c5ccccc45)cc3)ccnc2c1` [compound 126, 3-(methyloxy)-8-((4-((4-(4-methylphenyl)-1-phthalazinyl)methyl)phenyl)oxy)-1,5-naphthyridine], the EC50 is greater than 1.2 µM.

Regarding `Cc1csc(-c2nnc(Nc3ccc(Oc4ccnc5cc(C#N)ccc45)cc3)c3ccccc23)n1` [compound 86, 4-((4-((4-(4-methyl-1,3-thiazol-2-yl)-1-phthalazinyl)amino)phenyl)oxy)-7-quinolinecarbonitrile], the EC50 was found to be 0.097 µM. With `CCc1cc(-c2ccccc2)nnc1Nc1ccc(Oc2ncnc3cc(OC)c(OC)cc23)cc1` [compound 148], the EC50 is 0.039 µM. Still for that read-out and setting: the same measure for `COc1cc2nccc(Oc3ccc(Nc4nnc(-c5cccc(C)n5)c5ccccc45)cc3)c2cc1OC` [compound 150]: 0.017 µM.

The same test, now with this note: Homo sapiens, HeLa, HeLa cells, 4N ploidy, average, read-out: 24h_4NPloidy EC50_IP (uM Avg).
Regarding `COc1cnc2c(Oc3ccc(Nc4nnc(-c5ccccc5)cc4C(C)C)cc3)ccnc2c1` [compound 234], the EC50 is 0.196 µM. For the compound `Clc1ccc(-c2nnc(Nc3ccc(Oc4ccnc5ccsc45)cc3)c3ccccc23)cc1` [compound 250, 4-(4-chlorophenyl)-N-(4-(thieno[3,2-b]pyridin-7-yloxy)phenyl)-1-phthalazinamine], the EC50 worked out at 0.031 µM. Take `COc1cnc2c(Sc3ccc(Nc4nnc(-c5ccc(C)c(OC)c5)c5ccccc45)cc3)ccnc2c1` [compound 529]: the EC50 is 0.006 µM. Still for that read-out and setting: the same measure for `COc1cnc2c(Sc3ccc(Nc4nnc(N5CCC(Cl)CC5)c5ccccc45)cc3)ccnc2c1` [compound 527]: 0.004 µM. Regarding `COc1cnc2c(Oc3ccc(Nc4nnc(-c5ccc(F)cc5)c5ccccc45)cc3)ccnc2c1` [compound 220, 4-(4-fluorophenyl)-N-(4-((7-(methyloxy)-1,5-naphthyridin-4-yl)oxy)phenyl)-1-phthalazinamine], the EC50 is 0.036 µM. For `Clc1ccc(-c2nnc(Nc3ccc(Oc4ncnc5[nH]cnc45)cc3)c3ccccc23)cc1` [compound 266], the EC50 is greater than 1.2 µM. Same read-out and setting: the same measure for `FC(F)(F)Oc1ccc2nccc(Sc3ccc(Nc4nnc(-c5ccccc5)c5ccccc45)cc3)c2c1` [compound 571]: 0.06 µM; for `COc1cc2nncc(Oc3ccc(Nc4nnc(-c5ccc(Cl)cc5)c5ccccc45)cc3)c2cc1OC` [compound 282]: no less than 1.2 µM.

As for `COc1cnc2c(Sc3ccc(Nc4nnc(-c5ccc6c(c5)OCO6)c5ccccc45)cc3)ccnc2c1` [compound 530], the EC50 turned out to be 0.001 µM. On to `Cc1csc(-c2nnc(Nc3ccc(Sc4ccnc5cc(C(=O)N6CCOCC6)sc45)cc3)c3ccccc23)c1` [compound 312], for which the EC50 was found to be 0.032 µM. Consider `COc1ccc2nccc(Sc3ccc(Nc4nnc(-c5ccc(Cl)cn5)c5ccccc45)cc3)c2n1` [compound 550], for which the EC50 came to 0.016 µM. Still for that read-out and setting: as for `COc1cc2c(Oc3ccc(Nc4nnc(-c5ccccc5)c5ccccc45)cc3)ccnc2cc1OCc1ccccc1` [compound 326], the figure is 0.06 µM. For the compound `Cc1csc(-c2nnc(Nc3ccc(Sc4ccnc5cc(OC(F)(F)F)ccc45)cc3)c3ccccc23)c1` [compound 499], the EC50 is 0.052 µM. Still for that read-out and setting: as for `COc1cnc2c(Sc3ccc(Nc4nnc(-c5ccc(F)cc5)c5ccccc45)cc3)ccnc2c1` [compound 356, 4-(4-fluorophenyl)-N-(4-(7-methoxy-1,5-naphthyridin-4-ylthio)phenyl)phthalazin-1-amine], the figure is 0.007 µM; as for `COc1cc2c(Oc3ccc(Nc4nnc(-c5ccccc5)c5ccccc45)cc3)ccnc2cc1O` [compound 422], 0.01 µM; as for `Cc1csc(-c2nnc(Nc3ccc(Sc4ccnc5ccn(C(C)C)c45)cc3)c3ccccc23)c1` [compound 472], 0.007 µM. The same measure, in the same setting: the same measure for `COCCOc1ccc2c(Sc3ccc(Nc4nnc(-c5ccc(Cl)cc5)c5ccccc45)cc3)ccnc2c1` [compound 431]: 0.01 µM; for `COc1ccc(-c2nnc(Nc3ccc(Sc4ccnc5cc(OC)cnc45)cc3)c3ccccc23)cc1` [compound 357]: 0.007 µM; for `Cc1cccc(-c2nnc(Nc3ccc(Sc4ccnc5cccnc45)cc3)c3ccccc23)n1` [compound 421]: 0.051 µM. On to `FC(F)(F)Oc1ccc2c(Oc3ccc(Nc4nnc(-c5ccccc5)c5ccccc45)cc3)ccnc2c1` [compound 496], for which the EC50 was found to be 0.397 µM. In the case of `COc1cc2nccc(Oc3ccc(Nc4nnc(-c5ccccc5)c5ccccc45)cc3)c2cc1C(N)=O` [compound 225], the EC50 came to 0.004 µM. The same measure, in the same setting: as for `COCCOc1nnc(Nc2ccc(Sc3ccnc4cc(OC)cnc34)cc2)c2ccccc12` [compound 515], the figure is 0.018 µM.

On to `CCc1cc(-c2ccc(C)cc2)nnc1Nc1ccc(Oc2ccnc3cc(OC)cnc23)cc1` [compound 199], for which the EC50 was 0.018 µM. With `Cn1cncc1-c1cc2nccc(Oc3ccc(Nc4nnc(-c5ccc(Cl)cc5)c5ccccc45)cc3)c2s1` [compound 249], the EC50 worked out at 0.008 µM. Regarding `COc1ccc(-c2nnc(Nc3ccc(Sc4ccnc5ccoc45)cc3)c3ccccc23)cn1` [compound 485], the EC50 is 0.069 µM. For the compound `COc1cnc2c(Oc3ccc(Nc4nnc(-c5sccc5C)c5ccccc45)cc3)ccnc2c1` [compound 185], the EC50 came out at 0.241 µM.

Consider `COc1ccc2ncnc(Oc3ccc(Nc4nnc(-c5cc(C)cs5)c5ccccc45)cc3)c2c1` [compound 565], for which the EC50 stood at 0.03 µM. As for `COc1cnc2c(Sc3ccc(Nc4nnc(N5CCCCC5)c5ccccc45)cc3)ccnc2c1` [compound 346], the EC50 came out at 0.016 µM.

For the compound `COc1cnc2c(Oc3ccc(Nc4nnc(-c5c(C)nn(C)c5C)c5ccccc45)cc3)ccnc2c1` [compound 261], the EC50 was greater than 1.2 µM. Still for that read-out and setting: as for `N#Cc1ccc2c(Sc3ccc(Nc4nnc(-c5ccccc5)c5ccccc45)cc3)ccnc2c1` [compound 208], the figure is 0.023 µM. Still for that read-out and setting: as for `Cc1ccc(-c2nnc(Nc3ccc(Sc4ccnc5ccncc45)cc3)c3ccccc23)nc1` [compound 433], the figure is 0.017 µM; as for `FC(F)(F)Oc1ccc2c(Oc3ccc(Nc4nnc(-c5ccc(Cl)cc5)c5ccccc45)cc3)ccnc2c1` [compound 498], 0.078 µM; as for `Clc1ccc(-c2nnc(Nc3ccc(Sc4ccnc5[nH]ncc45)cc3)c3ccccc23)cc1` [compound 359], 0.013 µM.

In the case of `COc1cnc2c(Sc3ccc(Nc4nnc(-c5ccc6c(c5)OCO6)c5ccccc45)cc3F)ccnc2c1` [compound 522], the EC50 worked out at 0.001 µM. Same read-out and setting: as for `O=c1ccc2nccc(Sc3ccc(Nc4nnc(-c5ccc(Cl)cn5)c5ccccc45)cc3)c2[nH]1` [Example 405, 8-(4-(4-(5-Chloropyridin-2-yl)phthalazin-1-ylamino)phenylthio)-1,5-naphthyridin-2(1H)-one], the figure is 0.036 µM; as for `COc1cnc2c(Sc3ccc(Nc4nnc(-c5cc(C)cs5)c5ccccc45)cc3F)ccnc2c1` [compound 528], 0.009 µM; as for `Clc1ccc(-c2nnc(Nc3ccc(Sc4ccnc5ccccc45)cc3)c3ccccc23)nc1` [compound 365], 0.003 µM. On the same count and under the same terms, the same measure for `Cc1csc(-c2nnc(Nc3ccc(Sc4ccnc5cccnc45)cc3)c3ccccc23)c1` [compound 336]: 0.001 µM; for `COc1cccc(-c2nnc(Nc3ccc(Sc4ccnc5ccccc45)cc3)c3ccccc23)n1` [compound 327]: 0.017 µM; for `Cc1ccc(-c2nnc(Nc3ccc(Oc4ccnc5cc(-c6cncn6C)sc45)cc3)c3ccccc23)cc1` [compound 203]: 0.002 µM. In the case of `c1ccc(-c2nnc(Nc3ccc(Sc4ccnc5[nH]ncc45)cc3)c3ccccc23)cc1` [compound 352], the EC50 came to 0.055 µM. Same read-out and setting: the same measure for `COc1cnc2c(Oc3ccc(Nc4nnc(-c5ccc(S(C)(=O)=O)cc5)c5ccccc45)cc3)ccnc2c1` [compound 263]: 0.138 µM.

Regarding `CCc1cc(-c2ccc(C)cc2)nnc1Nc1ccc(Sc2ccnc3cc(OC)cnc23)cc1` [compound 322], the EC50 is 0.017 µM.
